Test system: false cleavers
Assay: Test Example 4: herbicidal effect by soil treatment (Table 19, symbol Q)
Assay type: in vivo, false cleavers (Galium spurium)
Conditions: amount of applied herbicide 320 g/ha
In short: (§1)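 Three weeks of greenhouse growth at 25° C. to 30° C. followed a uniform surface spray of water-diluted emulsion at a predetermined herbicide amount. Seeds had been sown beforehand under about 1.5 cm of sterilized diluvial soil. Grading followed criteria set out in an earlier test.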

Row | SMILES | herbicidal effect rating, Q: false cleavers
1 | CC(=O)c1ccc(-c2sc3ccccc3c2-c2c(O)c(C)nn(C)c2=O)cc1 [1-041] | 5 (Herbicidal rate of 90% or more (almost completely withered))
2 | CCCC(=O)Oc1c(C)nn(C)c(=O)c1-c1c(-c2ccc(C(C)=NOC)cc2)sc2ccccc12 [1-044] | 4 (Herbicidal rate of 70% or more and less than 90%)
3 | Cc1cc(-c2sc3ccccc3c2-c2c(O)c(C)nn(C)c2=O)ccc1F [1-051] | 0 (Herbicidal rate of 5% or less (almost no effect))

Test system: redroot pigweed
Assay: Test Example 4: herbicidal effect by soil treatment (Table 19, symbol N)
Assay type: in vivo, redroot pigweed (Amaranthus retroflexus)
Conditions: amount of applied herbicide 320 g/ha
In short: as §1

Row | SMILES | herbicidal effect rating, N: redroot pigweed
4 | CC(=O)c1ccc(-c2sc3ccccc3c2-c2c(O)c(C)nn(C)c2=O)cc1 [1-041] | 4 (Herbicidal rate of 70% or more and less than 90%)
5 | CCCC(=O)Oc1c(C)nn(C)c(=O)c1-c1c(-c2ccc(C(C)=NOC)cc2)sc2ccccc12 [1-044] | 4 (Herbicidal rate of 70% or more and less than 90%)
6 | Cc1cc(-c2sc3ccccc3c2-c2c(O)c(C)nn(C)c2=O)ccc1F [1-051] | 4 (Herbicidal rate of 70% or more and less than 90%)

Test system: southern crabgrass
Assay: Test Example 4: herbicidal effect by soil treatment (Table 19, symbol F)
Assay type: in vivo, southern crabgrass (Digitaria ciliaris)
Conditions: amount of applied herbicide 320 g/ha
In short: as §1

Row | SMILES | herbicidal effect rating, F: southern crabgrass
7 | CC(=O)c1ccc(-c2sc3ccccc3c2-c2c(O)c(C)nn(C)c2=O)cc1 [1-041] | 2 (Herbicidal rate of 20% or more and less than 40%)
8 | CCCC(=O)Oc1c(C)nn(C)c(=O)c1-c1c(-c2ccc(C(C)=NOC)cc2)sc2ccccc12 [1-044] | 2 (Herbicidal rate of 20% or more and less than 40%)
9 | Cc1cc(-c2sc3ccccc3c2-c2c(O)c(C)nn(C)c2=O)ccc1F [1-051] | 4 (Herbicidal rate of 70% or more and less than 90%)

Test system: lambsquarters
Assay: Test Example 5: herbicidal effect by foliage application, plastic box (Table 20, symbol O)
Assay type: in vivo, lambsquarters (Chenopodium album)
Conditions: foliage application, 320 g/ha, three weeks after application
In short: (§2)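 Plants sown in sterilized diluvial soil and grown 14 days in a greenhouse at 25° C to 30° C, then sprayed on the foliage with the compound's emulsion diluted in water to a predetermined herbicide amount. Injury to weeds and crops scored three weeks after application on a visual rating scale.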

Row | SMILES | herbicidal effect grade, O: lambsquarters
10 | CC(=O)c1ccc(-c2sc3ccccc3c2-c2c(O)c(C)nn(C)c2=O)cc1 [1-041] | 3 (Herbicidal rate of 40% or more and less than 70%)
11 | CCCC(=O)Oc1c(C)nn(C)c(=O)c1-c1c(-c2ccc(C(C)=NOC)cc2)sc2ccccc12 [1-044] | 4 (Herbicidal rate of 70% or more and less than 90%)
12 | Cc1cc(-c2sc3ccccc3c2-c2c(O)c(C)nn(C)c2=O)ccc1F [1-051] | 3 (Herbicidal rate of 40% or more and less than 70%)

Test system: persian speedwell
Assay: Test Example 5: herbicidal effect by foliage application, plastic box (Table 20, symbol R)
Assay type: in vivo, Persian speedwell (Veronica persica)
Conditions: foliage application, 320 g/ha, three weeks after application
In short: as §2

Row | SMILES | herbicidal effect grade, R: persian speedwell
13 | CC(=O)c1ccc(-c2sc3ccccc3c2-c2c(O)c(C)nn(C)c2=O)cc1 [1-041] | 5 (Herbicidal rate of 90% or more (almost completely withered))
14 | CCCC(=O)Oc1c(C)nn(C)c(=O)c1-c1c(-c2ccc(C(C)=NOC)cc2)sc2ccccc12 [1-044] | 5 (Herbicidal rate of 90% or more (almost completely withered))
15 | Cc1cc(-c2sc3ccccc3c2-c2c(O)c(C)nn(C)c2=O)ccc1F [1-051] | 5 (Herbicidal rate of 90% or more (almost completely withered))

Test system: blackgrass
Assay: Test Example 4: herbicidal effect by soil treatment (Table 19, symbol J)
Assay type: in vivo, blackgrass (Alopecurus myosuroides)
Conditions: amount of applied herbicide 320 g/ha
In short: as §1

Row | SMILES | herbicidal effect rating, J: blackgrass
16 | CC(=O)c1ccc(-c2sc3ccccc3c2-c2c(O)c(C)nn(C)c2=O)cc1 [1-041] | 0 (Herbicidal rate of 5% or less (almost no effect))
17 | CCCC(=O)Oc1c(C)nn(C)c(=O)c1-c1c(-c2ccc(C(C)=NOC)cc2)sc2ccccc12 [1-044] | 0 (Herbicidal rate of 5% or less (almost no effect))
18 | Cc1cc(-c2sc3ccccc3c2-c2c(O)c(C)nn(C)c2=O)ccc1F [1-051] | 0 (Herbicidal rate of 5% or less (almost no effect))

Test system: velvetleaf
Assay: Test Example 4: herbicidal effect by soil treatment (Table 19, symbol M)
Assay type: in vivo, velvetleaf (Abutilon theophrasti)
Conditions: amount of applied herbicide 320 g/ha
In short: as §1

Row | SMILES | herbicidal effect rating, M: velvetleaf
19 | CC(=O)c1ccc(-c2sc3ccccc3c2-c2c(O)c(C)nn(C)c2=O)cc1 [1-041] | 3 (Herbicidal rate of 40% or more and less than 70%)
20 | CCCC(=O)Oc1c(C)nn(C)c(=O)c1-c1c(-c2ccc(C(C)=NOC)cc2)sc2ccccc12 [1-044] | 0 (Herbicidal rate of 5% or less (almost no effect))
21 | Cc1cc(-c2sc3ccccc3c2-c2c(O)c(C)nn(C)c2=O)ccc1F [1-051] | 4 (Herbicidal rate of 70% or more and less than 90%)

Test system: Italian ryegrass
Assay: Test Example 5: herbicidal effect by foliage application, plastic box (Table 20, symbol K)
Assay type: in vivo, Italian ryegrass (Lolium multiflorum)
Conditions: foliage application, 320 g/ha, three weeks after application
In short: as §2

Row | SMILES | herbicidal effect grade, K: Italian ryegrass
22 | CC(=O)c1ccc(-c2sc3ccccc3c2-c2c(O)c(C)nn(C)c2=O)cc1 [1-041] | 5 (Herbicidal rate of 90% or more (almost completely withered))
23 | CCCC(=O)Oc1c(C)nn(C)c(=O)c1-c1c(-c2ccc(C(C)=NOC)cc2)sc2ccccc12 [1-044] | 4 (Herbicidal rate of 70% or more and less than 90%)
24 | Cc1cc(-c2sc3ccccc3c2-c2c(O)c(C)nn(C)c2=O)ccc1F [1-051] | 3 (Herbicidal rate of 40% or more and less than 70%)

Test system: false cleavers
Assay: Test Example 5: herbicidal effect by foliage application, plastic box (Table 20, symbol Q)
Assay type: in vivo, false cleavers (Galium spurium)
Conditions: foliage application, 320 g/ha, three weeks after application
In short: as §2

Row | SMILES | herbicidal effect grade, Q: false cleavers
25 | CC(=O)c1ccc(-c2sc3ccccc3c2-c2c(O)c(C)nn(C)c2=O)cc1 [1-041] | 4 (Herbicidal rate of 70% or more and less than 90%)
26 | CCCC(=O)Oc1c(C)nn(C)c(=O)c1-c1c(-c2ccc(C(C)=NOC)cc2)sc2ccccc12 [1-044] | 3 (Herbicidal rate of 40% or more and less than 70%)
27 | Cc1cc(-c2sc3ccccc3c2-c2c(O)c(C)nn(C)c2=O)ccc1F [1-051] | 0 (Herbicidal rate of 5% or less (almost no effect))

Test system: green foxtail
Assay: Test Example 5: herbicidal effect by foliage application, plastic box (Table 20, symbol G)
Assay type: in vivo, green foxtail (Setaria viridis)
Conditions: foliage application, 320 g/ha, three weeks after application
In short: as §2

Row | SMILES | herbicidal effect grade, G: green foxtail
28 | CC(=O)c1ccc(-c2sc3ccccc3c2-c2c(O)c(C)nn(C)c2=O)cc1 [1-041] | 1 (Herbicidal rate of 5% or more and less than 20%)
29 | CCCC(=O)Oc1c(C)nn(C)c(=O)c1-c1c(-c2ccc(C(C)=NOC)cc2)sc2ccccc12 [1-044] | 5 (Herbicidal rate of 90% or more (almost completely withered))
30 | Cc1cc(-c2sc3ccccc3c2-c2c(O)c(C)nn(C)c2=O)ccc1F [1-051] | 5 (Herbicidal rate of 90% or more (almost completely withered))

Test system: Japanese bulrush
Assay: Test Example 2: herbicidal activity, application during weed generation under submerged conditions (Table 17, symbol B)
Assay type: in vivo, Japanese bulrush (Schoenoplectus juncoides)
Conditions: AAH 320 g/ha; application during weed generation, submerged conditions
In short: (§3)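 Wagner pot, alluvial soil, 4 cm flood; mixed sowing of all species; greenhouse 25° C.–30° C. Emulsifiable formulation, water-diluted to predetermined dose, applied to paddy water at 1–2 leaf stage. Effect rated at 3 wk using the earlier test's scoring criteria.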

Row | SMILES | herbicidal effect rating, B: Japanese bulrush
31 | CC(=O)c1ccc(-c2sc3ccccc3c2-c2c(O)c(C)nn(C)c2=O)cc1 [1-041] | 3 (Herbicidal rate of 40% or more and less than 70%)
32 | CCCC(=O)Oc1c(C)nn(C)c(=O)c1-c1c(-c2ccc(C(C)=NOC)cc2)sc2ccccc12 [1-044] | 3 (Herbicidal rate of 40% or more and less than 70%)
33 | Cc1cc(-c2sc3ccccc3c2-c2c(O)c(C)nn(C)c2=O)ccc1F [1-051] | 0 (Herbicidal rate of 5% or less (almost no effect))

Test system: barnyard grass
Assay: Test Example 4: herbicidal effect by soil treatment (Table 19, symbol H)
Assay type: in vivo, barnyard grass (Echinochloa crus-galli)
Conditions: amount of applied herbicide 320 g/ha
In short: as §1

Row | SMILES | herbicidal effect rating, H: barnyard grass
34 | CC(=O)c1ccc(-c2sc3ccccc3c2-c2c(O)c(C)nn(C)c2=O)cc1 [1-041] | 0 (Herbicidal rate of 5% or less (almost no effect))
35 | CCCC(=O)Oc1c(C)nn(C)c(=O)c1-c1c(-c2ccc(C(C)=NOC)cc2)sc2ccccc12 [1-044] | 0 (Herbicidal rate of 5% or less (almost no effect))
36 | Cc1cc(-c2sc3ccccc3c2-c2c(O)c(C)nn(C)c2=O)ccc1F [1-051] | 3 (Herbicidal rate of 40% or more and less than 70%)

Test system: oval-leafed pondweed
Assay: Test Example 2: herbicidal activity, application during weed generation under submerged conditions (Table 17, symbol C)
Assay type: in vivo, oval-leafed pondweed (Monochoria vaginalis)
Conditions: AAH 320 g/ha; application during weed generation, submerged conditions
In short: as §3

Row | SMILES | herbicidal effect rating, C: oval-leafed pondweed
37 | CC(=O)c1ccc(-c2sc3ccccc3c2-c2c(O)c(C)nn(C)c2=O)cc1 [1-041] | 3 (Herbicidal rate of 40% or more and less than 70%)
38 | CCCC(=O)Oc1c(C)nn(C)c(=O)c1-c1c(-c2ccc(C(C)=NOC)cc2)sc2ccccc12 [1-044] | 1 (Herbicidal rate of 5% or more and less than 20%)
39 | Cc1cc(-c2sc3ccccc3c2-c2c(O)c(C)nn(C)c2=O)ccc1F [1-051] | 0 (Herbicidal rate of 5% or less (almost no effect))

Test system: wild oat
Assay: Test Example 4: herbicidal effect by soil treatment (Table 19, symbol I)
Assay type: in vivo, wild oat (Avena fatua)
Conditions: amount of applied herbicide 320 g/ha
In short: as §1

Row | SMILES | herbicidal effect rating, I: wild oat
40 | CC(=O)c1ccc(-c2sc3ccccc3c2-c2c(O)c(C)nn(C)c2=O)cc1 [1-041] | 1 (Herbicidal rate of 5% or more and less than 20%)
41 | CCCC(=O)Oc1c(C)nn(C)c(=O)c1-c1c(-c2ccc(C(C)=NOC)cc2)sc2ccccc12 [1-044] | 0 (Herbicidal rate of 5% or less (almost no effect))
42 | Cc1cc(-c2sc3ccccc3c2-c2c(O)c(C)nn(C)c2=O)ccc1F [1-051] | 0 (Herbicidal rate of 5% or less (almost no effect))

Test system: late watergrass
Assay: Test Example 2: herbicidal activity, application during weed generation under submerged conditions (Table 17, symbol A)
Assay type: in vivo, late watergrass (Echinochloa oryzicola)
Conditions: AAH 320 g/ha; application during weed generation, submerged conditions
In short: as §3

Row | SMILES | herbicidal effect rating, A: late watergrass
43 | CC(=O)c1ccc(-c2sc3ccccc3c2-c2c(O)c(C)nn(C)c2=O)cc1 [1-041] | 0 (Herbicidal rate of 5% or less (almost no effect))
44 | CCCC(=O)Oc1c(C)nn(C)c(=O)c1-c1c(-c2ccc(C(C)=NOC)cc2)sc2ccccc12 [1-044] | 4 (Herbicidal rate of 70% or more and less than 90%)
45 | Cc1cc(-c2sc3ccccc3c2-c2c(O)c(C)nn(C)c2=O)ccc1F [1-051] | 2 (Herbicidal rate of 20% or more and less than 40%)

Test system: green foxtail
Assay: Test Example 4: herbicidal effect by soil treatment (Table 19, symbol G)
Assay type: in vivo, green foxtail (Setaria viridis)
Conditions: amount of applied herbicide 320 g/ha
In short: as §1

Row | SMILES | herbicidal effect rating, G: green foxtail
46 | CC(=O)c1ccc(-c2sc3ccccc3c2-c2c(O)c(C)nn(C)c2=O)cc1 [1-041] | 3 (Herbicidal rate of 40% or more and less than 70%)
47 | CCCC(=O)Oc1c(C)nn(C)c(=O)c1-c1c(-c2ccc(C(C)=NOC)cc2)sc2ccccc12 [1-044] | 4 (Herbicidal rate of 70% or more and less than 90%)
48 | Cc1cc(-c2sc3ccccc3c2-c2c(O)c(C)nn(C)c2=O)ccc1F [1-051] | 5 (Herbicidal rate of 90% or more (almost completely withered))

Reference: US20230085307A1, “PYRIDAZINONE COMPOUND AND HERBICIDE” (NISSAN CHEMICAL CORPORATION, priority 2019, published 2023)
